Experiments:
Assay type in all cases: in vivo, Male DBA/1O1aHsd mice
[1] = test system: Collagen-Induced Arthritis (CIA); assay: Collagen-Induced Arthritis, EE vs. TG (Example 2): clinical arthritis severity and incidence; conditions: for incidence of disease: day 45
Source text: The anti-arthritic activity of DHA, DHA/DPAn6 and DHA/EPA, administered as EE or triglyceride oils (TG), in a chronic mouse model of inflammation, Collagen-Induced Arthritis (CIA), was studied. Methods used in this study were similar to those described in Example 1 (CIA-EE Study). Study groups consisted of: Male DBA/1O1aHsd mice were enrolled, quarantined, and feed study diets following the protocols described in Example 1 (CIA-EE Study). EE and TG oils were blended into the base diet to provide 2500 mg/kg PUFA per day (HED approximately 12 g/day). A single dose of PUFA per day (HED approximately 5 g/day). The 1000 mg/kg DHA-EE dose was equivalent to the amount of DHA administered in the DHA/EPA-EE blend. The fat blend the 2500 mg/kg EE diets consisted of approximately: 1 part flax, 12 parts HCOC and 23 parts HO-SAFF; 1000 mg/kg EE diet: 1 part flax, 12 parts HCOC and 32 parts HO-SAFF; 2500 mg/kg DHASCO® oil diet: 1 part flax, 8 parts HCOC, 17 parts HO-SAFF and 15 parts soybean oil; 2500 mg/kg DHA-S oil diet: 1 part flax, 5 parts HCOC, 16 parts HO-SAFF and 6 parts soybean oil. 2500 mg/kg DHA/EPA (Nordic Naturals fish oil) diet: 1 part flax, 21 parts HCOC, 18 parts HO-SAFF and 13 parts soybean oil. The monounsaturate control animals received a fat blend of 1 part flax, 7 parts HCOC and 25 parts HO-SAFF. All study diets provided a total of 7% fat. Animals in the No Disease control and Dexamethasone groups were fed the diet containing OA-EE. Mice received collagen injections on day 0 and day 21, as described previously. Blood samples were collected at day 21 and day 45. At day 45, joints were collected for histology and pathology. Data was analyzed and compared by one-way ANOVA using the Bonferroni post-test to compare treatment groups to respective placebo control and to make comparisons between treatment groups (GraphPad, Prism, Version 4.0). Effects were considered to be statistically significant at p<0.05. Arthritis severity was assessed from day 18 to 45; a score of 0 represented an animal devoid of clinical arthritis symptoms and a score of 5 represented advanced clinical arthritis. Scores from 0-5 (most severe) were assigned to each digit on the fore and hind limbs based on erythema, swelling and mobility the mean arthritis severity per animal was determined.

[2] = CIA-EE (Example 1): serum phospholipid fatty acid levels by FAME analysis
Experimental: (§1) The appropriate ethyl esters were blended into the base diet to provide approximately 2500 and 5000 mg/kg polyunsaturated fatty acid (PUFA) per day. The human equivalent doses (HED) were approximately 12 g/day and 22 g/day, respectively. The 2500 mg/kg EE diets contained the following fat blend: 1 part flax, 12 parts HCOC and 23 parts HO-SAFF. The 5000 mg/kg EE diets contained a fat blend consisting of: 1 part flax, 5 parts HCOC and 20 parts HO-SAFF. All study diets provided a total of 7% fat. Animals were fed study diets for approximately 30 days prior to the first collagen injection at day 0 and remained on the diets until study termination (day 45). Animals in the No Disease control and Dexamethasone groups were fed the diet containing OA-EE. Following a second collagen injection on day 21, arthritis severity was scored daily. Blood samples were collected at day 21 and day 45. Joints, 6 per an animal, were collected for histology and pathology on day 45.
Serum phospholipid fatty acid levels were determined by FAME analysis (FIG. 5). Treatment with DHA-EE elevated serum DHA levels 3-4 fold, as compared the OA-EE (placebo) control, whereas DPAn6-EE elevated serum DPAn6 20-35 fold. Serum EPA levels were elevated when dosed with the DHA/EPA-EE blend 8-15 fold and 4-7 fold when dosed with DHA-EE, as compared to the OA-EE (placebo) control. […]

[3] = test system: Collagen-Induced Arthritis (CIA); assay: Collagen-Induced Arthritis, ethyl esters (CIA-EE, Example 1): clinical arthritis severity and incidence; conditions: for arthritis severity score / arthritis severity score as area under the curve (AUC): days 18-45; for arthritis severity score as area under the curve (AUC): FIG. 2
Source text: The anti-arthritic activity of DHA, DPAn6, DHA/DPAn6 (DHA S-oil ratio) and DHA/EPA (fish oil ratio) ethyl esters (EE) in a chronic mouse model of inflammation, Collagen-Induced Arthritis (CIA), was studied.
Male DBA/1O1aHsd mice (3.5-4 weeks of age) were randomized by weight and enrolled in the study after a three day quarantine in which animals were fed the AlN-93G diet with a modified base fat: 1 part flax seed oil (flax), 9 parts hydrogenated coconut oil (HCOC) and 21 parts high-oleic safflower oil (HO-SAFF). 15 animals were enrolled per study group, with the exception of the No Disease control that had 4 animals. Study groups consisted of:
as §1
Data was analyzed and compared by one-way ANOVA using the Bonferroni post-test to compare treatment groups to respective placebo control and to make comparisons between treatment groups (GraphPad, Prism, Version 4.0). Effects were considered to be statistically significant at p<0.05.
Arthritis severity was assessed from day 18 to 45; a score of 0 represented an animal devoid of clinical arthritis symptoms and a score of 5 represented advanced clinical arthritis. Scores from 0-5 (most severe) were assigned to each digit on the fore and hind limbs based on erythema, swelling and mobility and the mean arthritis severity per animal was determined.
The incidence of disease was reduced in animals treated with DHA-EE (FIG. 3A/B). A clinical arthritis score greater than 0 was considered diseased. The incidence of disease at day 45 was 13% in animals treated with 2500 mg/kg DHA-EE, as compared to 100% disease incidence in OA-EE (placebo) control animals.

anti-collagen antibodies = assay: CIA-EE (Example 1): anti-collagen antibody production; conditions: measured day 21 and day 45, vs OA-EE placebo
Experimental: as §1
Anti-collagen antibody production was measured prior to the antigen challenge (day 21) and at study termination (day 45). […] Means (n=5)±SD. *p<0.05**p<0.01.

CC/C=C\C/C=C\C/C=C\C/C=C\C/C=C\C/C=C\CCC(=O)OCC [DHA-EE]
arthritis severity score as area under the curve (AUC) ([1]; 1000 mg/kg, days 18-45, vs OA-EE (placebo) control, FIG. 8B): significantly reduced arthritis | arthritis severity, comparison between treatment groups ([1]; 2500 mg/kg PUFA, Dexamethasone 0.1 mg/kg): more potent than DHA-EPA-EE | arthritis severity score as area under the curve (AUC) ([1]; 2500 mg/kg PUFA, days 18-45, vs monounsaturated or OA-EE (placebo) control, FIG. 8A/B): significantly reduced arthritis | incidence of disease ([1]; 1000 mg/kg, FIG. 9B): 73% | incidence of disease ([1]; 2500 mg/kg PUFA, FIG. 9A/B): 60% | arthritis severity score ([1]; days 18-45, FIG. 7A/B, dose not stated): reduced arthritis severity | serum ARA levels, decrease vs OA-EE (placebo) control ([2]; 2500 mg/kg): approximately 90% | serum ARA levels, decrease vs OA-EE (placebo) control ([2]; 5000 mg/kg): approximately 90% | arthritis severity score ([3]; 2500 mg/kg in diet, FIG. 1A): reduced arthritis severity | arthritis severity score as area under the curve (AUC) ([3]; 2500 mg/kg, vs 2500 mg/kg OA-EE (placebo) control): significantly reduced arthritis severity | arthritis severity, comparison between treatment groups ([3]; 5000 mg/kg): more potent than DHA/EPA-EE | arthritis severity score ([3]; 5000 mg/kg in diet, FIG. 1B): reduced arthritis severity | arthritis severity score as area under the curve (AUC) ([3]; 5000 mg/kg, vs 5000 mg/kg OA-EE (placebo) control): significantly reduced arthritis severity | incidence of disease (clinical arthritis score greater than 0) ([3]; day 45, 2500 mg/kg, FIG. 3A): 13% | arthritis severity, comparison with dexamethasone ([3]; dose not stated in sentence (2500 and 5000 mg/kg tested), dexamethasone 0.1 mg/kg): as effective as dexamethasone | level of plasma anti-collagen antibodies (anti-collagen antibodies; 2500 mg/kg): reduced the level of anti-collagen antibodies | level of plasma anti-collagen antibodies (anti-collagen antibodies; 5000 mg/kg): reduced the level of anti-collagen antibodies

From patent publication US20130137767A1, “Methods and Compositions for Treating Arthritis with Docosahexaenoic Acid” (DSM IP ASSETS B.V., priority 2010, published 2013)
